We go through one compound from patent US10782295B2, “Cysteine-reactive ligand discovery in proteomes” (THE SCRIPPS RESEARCH INSTITUTE, priority 2013, dated 2020).

The test system of test [1] is JNK pathway activation. The test is described as follows: Western blotting of phospho-JNK in WT-ZAK-transfected HEK-293T cells. The format is cell-based, human. Here is the method:
(§1) We next set out to assess the functional effects of HNE modification of ZAK in human cells. HEK-293T cells were stably transfected with cDNAs for WT-ZAK, C22A-ZAK, or K45M-ZAK and the activation state of their MAPK signaling pathways was monitored by western blotting with anti-phosphoprotein antibodies. […] We next treated cells with H2O2 (1 mM, 30 min) to induce oxidative stress, a process that is known to activate the JNK pathway^41,42. H2O2 treatment stimulated JNK activity in both WT- and C22A-ZAK-transfected cells (but not K45M-ZAK-transfected cells), with WT-ZAK cells showing the greater level of activation (FIG. 5b,c). […] We interpret these findings to indicate the existence of both ZAK-dependent and ZAK-independent pathways for HNE modulation of JNK activation (FIG. 5d). By modifying C22 on ZAK, HNE blocks the contribution that this kinase makes to the activation of the JNK pathway. […]
(§2) Mouse and rabbit monoclonal antibodies against phospho-ERK 1/2 (Thr202/Tyr204), phosphor-SAPK/JNK (Thr183/[…]), phosphor-p38 MAPK (Thr180/[…]) and total ERK 1/2, SAPK/JNK and p38 MAPK were purchased from Cell Signaling Technology. […] Protein band intensities were quantified by ImageJ8 and ratios of phosphor-MAPK over total MAPK were computed. […]
On the technique in general: In western blotting, separated proteins are transferred to a membrane and probed.

Test [2] concerns JNK pathway activation. Description: Western blotting of phospho-JNK in mock-transfected HEK-293T cells. The settings on record: 50 or 100 μM, 60 min. The format is cell-based, human. Here is the method:
as §1, §2

The structures appear in SMILES notation.

On to `CCCCCC(O)/C=C/C=O` (stereo not drawn) [4-HNE, 4-Hydroxynonenal], for which the “JNK activation by HNE alone, WT-ZAK-transfected cells” value in the test on JNK pathway activation [1] (50 or 100 μM, 60 min) is listed as “mostly unaffected”. Also, the “H2O2-dependent JNK activation, WT-ZAK cells” value in the test on JNK pathway activation [1] (pre-treatment 100 μM, 30 min, then H2O2 1 mM, 30 min) is “blocking H2O2-dependent JNK activation”. For the same compound, the “JNK activation by HNE alone, mock-transfected cells” value in the test on JNK pathway activation [2] is given as “activated JNK”.
